According to patent US20040235834A1, “Thiazoles useful as inhibitors of protein kinases” (priority 2003, published 2004):
pKi: −log10 of the molar value.

Key:
[1] = molecular target: SYK (Homo sapiens, UniProt P43405); experiment: SYK inhibition assay (standard coupled enzyme assay); assay type: biochemical; conditions: 200 μM ATP, 4 μM poly Gly-Tyr peptide, 30° C.
Experimental: Compounds were screened for their ability to inhibit SYK using a standard coupled enzyme assay (Fox et al., Protein Sci. 1998, 7, 2249). Reactions were carried out in 100 mM HEPES (pH 7.5), 10 mM MgCl2, 25 mM NaCl, 1 mM DTT and 1.5% DMSO. Final substrate concentrations in the assay were 200 μM ATP (Sigma chemical Co.) and 4 μM poly Gly—Tyr peptide (Sigma Chemical Co.). Assays were carried out at 30° C. and 200 nM SYK. Final concentrations of the components of the coupled enzyme system were 2.5 mM phosphoenolpyruvate, 300 μM NADH, 30 μg/ml pyruvate kinase and 10 μg/ml lactate dehydrogenase.
An assay stock buffer solution was prepared containing all of the reagents listed above, with the exception of SYK, DTT, and the test compound of interest of the present invention. 56 μl of the test reaction was placed in a 96 well plate followed by the addition of 1 μl of 2 mM DMSO stock containing the test compound of the present invnetion (final compound concentration 30 μM). The plate was pre-incubated for ˜10 minutes at 30° C. and the reaction initiated by the addition of 10 μl of enzyme (final concentration 25 nM).

[2] = molecular target: T1, ZAP-70 (Homo sapiens, UniProt P43403); experiment: ZAP-70 inhibition assay (standard coupled enzyme assay); assay type: biochemical; conditions: 100 μM ATP, 20 μM poly-4EY peptide, 30° C., 60 nM ZAP-70
T1 sequence (P43403 1-619): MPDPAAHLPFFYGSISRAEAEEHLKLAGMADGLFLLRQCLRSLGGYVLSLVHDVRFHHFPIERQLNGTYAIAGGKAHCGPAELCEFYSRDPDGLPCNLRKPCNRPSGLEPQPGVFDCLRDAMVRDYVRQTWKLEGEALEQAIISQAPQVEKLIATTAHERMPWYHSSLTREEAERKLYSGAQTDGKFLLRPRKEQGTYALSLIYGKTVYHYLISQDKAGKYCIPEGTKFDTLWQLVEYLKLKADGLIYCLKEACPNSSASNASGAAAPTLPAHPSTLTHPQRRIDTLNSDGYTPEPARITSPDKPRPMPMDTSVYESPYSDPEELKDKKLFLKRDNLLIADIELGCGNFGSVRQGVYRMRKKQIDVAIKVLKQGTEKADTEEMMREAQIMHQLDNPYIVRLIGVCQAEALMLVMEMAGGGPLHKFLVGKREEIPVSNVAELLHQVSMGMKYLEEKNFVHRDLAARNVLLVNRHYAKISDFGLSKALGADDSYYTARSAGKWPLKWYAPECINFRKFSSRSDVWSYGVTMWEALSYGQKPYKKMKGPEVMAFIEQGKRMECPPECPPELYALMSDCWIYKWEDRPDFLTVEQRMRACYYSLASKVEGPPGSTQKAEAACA
Experimental: Compounds were screened for their ability to inhibit ZAP-70 using a standard coupled enzyme assay (Fox et al., Protein Sci. 1998, 7, 2249). Assays were carried out in a mixture of 100 mM HEPES (pH 7.5), 10 mM MgCl2, 25 mM NaCl, 2 mM DTT and 3% DMSO. Final substrate concentrations in the assay were 100 μM ATP (Sigma Chemicals) and 20 μM peptide (poly-4EY, Sigma Chemicals). Assays were carried out at 30° C. and 60 nM ZAP-70. Final concentrations of the components of the coupled enzyme system were 2.5 mM phosphoenolpyruvate, 300 μM NADH, 30 μg/ml pyruvate kinase and 10 μg/ml lactate dehydrogenase.
An assay stock buffer solution was prepared containing all of the reagents listed above, with the exception of ZAP-70 and the test compound of interest of the present invention. 55 μl of the stock solution was placed in a 96 well plate followed by addition of 2 μl of DMSO stock containing serial dilutions of the test compound of the present invention (typically starting from a final concentration of 15 μM). The plate was preincubated for 10 minutes at 30° C. and the reaction initiated by addition of 10 μl of enzyme (final concentration 60 nM). Initial reaction rates were determined with a Molecular Devices SpectraMax Plus plate reader over a 15 minute time course. Ki data was calculated from non-linear regression analysis using the Prism software package (GraphPad Prism version 3.Oa for Macintosh, GraphPad Software, San Diego Calif., USA).

Structure (SMILES) | pKi [1] | pKi [2]
Cc1cc(C)cc(Nc2nccc(-c3csc(CO)n3)n2)c1 [Compound I-4] | ≥ 5.30 | ≥ 5.30
Cc1cc(Nc2nccc(-c3cscn3)n2)cc(C(F)(F)F)c1 [Compound I-5] | ≥ 5.30 | ≥ 5.30
Oc1cc(Nc2nccc(-c3cscn3)n2)cc(C(F)(F)F)c1 [Compound I-6] | ≥ 5.30 | ≥ 5.30

The remaining lines, values ahead:

pKi [1] | pKi [2] | Structure (SMILES)
≥ 5.30 | ≥ 5.30 | Cc1cc(C)cc(Nc2nccc(-c3cscn3)n2)c1 [Compound I-1]
≥ 5.30 | ≥ 5.30 | COc1cc(Nc2nccc(-c3cscn3)n2)cc(C(F)(F)F)c1 [Compound I-2]
≥ 5.30 | ≥ 5.30 | CC(=O)c1nc(-c2ccnc(Nc3cc(C)cc(C)c3)n2)cs1 [Compound I-3]
